Tests used:
[1] = Dynamic vapor sorption (DVS) hygroscopicity; format: physicochemical; conditions: at 80% RH, 25° C.
Procedure: Form A may be observed EP-1. […] (peak temperature) which is accompanied by 5.9 wt % weight loss up to ˜150° C. in the TGA curve (FIG. 3). […] Form A is hygroscopic as indicated by water adsorption of 5.8 wt % at 80% RH measured by dynamic vapor sorption (DVS) (FIG. 4). A solid is considered moderately hygroscopic when water uptake at 25° C./80% RH is between 2-15 wt % based on criteria of European Pharmacopeia.
Form B of EP-1 trihydrate (x is 3) is a trihydrate as confirmed by single crystal analysis. The experimental XRPD pattern of Form B matches well with the simulated one from single crystal data (FIG. 6). This was also confirmed by DSC and TGA data (FIG. 7 and FIG. 8, respectively). DSC data indicates Form B dehydrates at ˜132° C. […] Form B is slightly hygroscopic as evidenced by a weight change of ˜0.3% between 0% and 95% RH (FIG. 9), (data collection was programmed from 95% RH-0% RH-95% RH at a step size of 10% RH at 25° C.).

[2] = Solubility in Simulated Gastric Fluid (SGF) at 37° C.; format: physicochemical
Procedure: To study if Form A and Form B would perform differently in stomach, the solubilities of Form A and Form B were measured in Simulated Gastric Fluid (SGF, see below for SGF preparation) at 37° C. In these experiments, about 100 mg Form A and 50 mg Form B were weighed into 20-ml glass vials, followed by addition of 4 ml SGF into each vial and the samples were stirred at 37° C. Aliquots were taken for solubility determination using HPLC after 15, 30, and 60 min, respectively. The remaining solids after each time point were subject to XRPD analysis.
Weigh appropriate amount of hydrochloride (HCl) and sodium chloride (NaCl) into a 1-L flask followed by addition of 1-L deionized water. The mixture was stirred until all solids are dissolved. Check pH value with a pH-meter and adjust the pH to 1.8 with HCl (1N) or NaOH (1N).

Q: With `CC(C)N(CC1O[C@@H](n2cnc3c(N)ncnc32)[C@H](O)[C@@H]1O)C1CC(CCc2nc3cc(C(C)(C)C)ccc3[nH]2)C1` (stereo partly drawn) [Form A, (2R,3R,4S,5R)-2-(6-amino-9H-purin-9-yl)-5-((((1r,3S)-3-(2-(5-(tert-butyl)-1H-benzo[d]imidazol-2-yl)ethyl)cyclobutyl)(isopropyl)amino)methyl)tetrahydrofuran-3,4-diol hydrate] as the compound, how does the water adsorption [1] read?
A: The water adsorption was 5.8 wt %.

Q: And the “time of conversion to Form B in SGF” value [2]?
A: The value was at most 15 min.

Q: What about the solubility at 15 min ([2]; Simulated Gastric Fluid (SGF), pH 1.8, simulated gastric fluid, thermodynamic from solid, 15 min, calculated using free base content) of the same compound?
A: Its solubility at 15 min is 5400 µg/mL.

Q: What about the solubility at 30 min ([2]; Simulated Gastric Fluid (SGF), pH 1.8, simulated gastric fluid, thermodynamic from solid, 30 min, calculated using free base content) of the same compound?
A: The solubility at 30 min was 5500 µg/mL.

Q: What about the solubility at 60 min ([2]; Simulated Gastric Fluid (SGF), pH 1.8, simulated gastric fluid, thermodynamic from solid, 60 min, calculated using free base content) of the same compound?
A: Its solubility at 60 min is 5300 µg/mL.

Reference: US9701707B2, “Methods of synthesizing substituted purine compounds” (Epizyme, Inc., priority 2013, dated 2017)
